Measurements published in patent US9682940B2, “Indazole derivatives useful as CB-1 inverse agonists” (Janssen Pharmaceutica NV, priority 2015, dated 2017).

Assays:
[1] = molecular target: Human CB1R (Cannabanoid receptor 1) (Homo sapiens (Human), UniProt P21554); assay: CB-1 in vitro cAMP (HTRF) assay in HEK-293 cells; format: cell-based; conditions: HEK-293 cells stably transfected with human CB1R, 250 nM Forskolin, mean where tested more than once, read-out: CB-1 (HEK_cAMP) EC50
In short: (§1)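 HEK-293 cells stably expressing human CB1 or CB2 plated overnight, then tested in HBSS/5 mM HEPES/0.1% BSA with 0.5 mM IBMX and forskolin (1.5 μM working dilution). Intracellular cAMP quantified by competitive HTRF immunoassay (d2-cAMP, cryptate anti-cAMP) against a cAMP standard curve; compounds as 1/3 serial dilutions from 10 mM DMSO stocks.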

[2] = molecular target: Human CB2R (Cannabanoid receptor 2) (Homo sapiens (Human), UniProt P34972); assay: CB-2 in vitro cAMP (HTRF) assay in HEK-293 cells; format: cell-based; conditions: HEK-293 cells stably transfected with human CB2R, 250 nM Forskolin, mean where tested more than once, read-out: CB-2 (HEK_cAMP) EC50
Sequence of Human CB2R (Cannabanoid receptor 2) (P34972 whole entry): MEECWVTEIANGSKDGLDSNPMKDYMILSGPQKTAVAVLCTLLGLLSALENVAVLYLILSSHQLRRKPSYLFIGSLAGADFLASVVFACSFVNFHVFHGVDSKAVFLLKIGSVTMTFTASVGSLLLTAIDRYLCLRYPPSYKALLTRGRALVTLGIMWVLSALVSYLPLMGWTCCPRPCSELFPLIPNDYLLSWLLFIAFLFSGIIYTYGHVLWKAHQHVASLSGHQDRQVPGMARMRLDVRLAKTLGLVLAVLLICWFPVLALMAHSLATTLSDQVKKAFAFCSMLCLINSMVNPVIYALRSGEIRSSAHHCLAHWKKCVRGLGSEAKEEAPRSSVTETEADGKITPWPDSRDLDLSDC
In short: as §1

[3] = Mouse Fast PK/BBB; format: in vivo, Male C57bl/6j mice; conditions: oral
Experimental: Male C57bl/6j mice were ordered from Charles River at 22-25 g and housed 3 per cage. They were fed standard chow (Purina 5001).
Male C57bl/6j mice were dosed with test compounds at 20 mg/kg or 30 mg/kg. Plasma was collected via retro-orbital bleeding at 1 hr and 4 hrs after dosing. Whole brain without cerebellum was collected at 4 hrs after dosing. Wet brain weight was recorded before freezing. Brains were homogenized in saline and sent for analysis for determination of concentration of test compound.

Sequence of Human CB1R (Cannabanoid receptor 1) (P21554 whole entry): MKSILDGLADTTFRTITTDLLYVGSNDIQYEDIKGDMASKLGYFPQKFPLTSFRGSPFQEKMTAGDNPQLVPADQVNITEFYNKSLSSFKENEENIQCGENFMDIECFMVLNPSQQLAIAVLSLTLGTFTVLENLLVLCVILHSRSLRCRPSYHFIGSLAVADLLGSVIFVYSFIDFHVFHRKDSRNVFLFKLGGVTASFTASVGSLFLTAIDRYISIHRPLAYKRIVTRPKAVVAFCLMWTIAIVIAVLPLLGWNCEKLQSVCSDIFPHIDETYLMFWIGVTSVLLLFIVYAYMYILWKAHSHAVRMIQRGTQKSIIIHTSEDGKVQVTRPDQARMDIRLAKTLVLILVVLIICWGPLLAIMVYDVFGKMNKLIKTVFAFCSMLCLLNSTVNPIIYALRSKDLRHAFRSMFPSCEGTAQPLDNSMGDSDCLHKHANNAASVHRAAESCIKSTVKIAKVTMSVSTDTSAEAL

Structure (SMILES) | EC50 [1] | EC50 [2] | BRAIN Mean Conc. (ng/mL) ± Std. Dev ([3]; Dose 30 mg/kg, Time 1 hr) | PLASMA Mean Conc. (ng/mL) ± Std. Dev ([3]; Dose 30 mg/kg, Time 1 hr) | BRAIN Mean Conc. (ng/mL) ± Std. Dev ([3]; Dose 30 mg/kg, Time 4 hr) | PLASMA Mean Conc. (ng/mL) ± Std. Dev ([3]; Dose 30 mg/kg, Time 4 hr) | further results
O=S(=O)(N1CCC(c2n[nH]c3ccc(C(c4ccc(Cl)cc4)c4ccc(Cl)cc4)cc23)CC1)C(F)(F)F [Compound 35] | 5 nM | > 10000 nM |  |  |  |  | BRAIN Mean Conc. (ng/mL) ± Std. Dev (ng/mL) ([3]; Dose 20 mg/kg, Time 1 hr): BLOQ ± NA; PLASMA Mean Conc. (ng/mL) ± Std. Dev ([3]; Dose 20 mg/kg, Time 1 hr): 3613 ± 253 ng/mL; BRAIN Mean Conc. (ng/mL) ± Std. Dev (ng/mL) ([3]; Dose 20 mg/kg, Time 4 hr): BLOQ ± NA; PLASMA Mean Conc. (ng/mL) ± Std. Dev ([3]; Dose 20 mg/kg, Time 4 hr): 611 ± 125 ng/mL
COc1cc(S(=O)(=O)N2CCC(c3c4cc(C(c5ccc(Cl)cc5)c5ccc(Cl)cc5)ccc4nn3C3CC3)CC2)ccc1C(=O)O [Compound 157, 4-(4-(5-(bis(4-chlorophenyl)methyl)-2-cyclopropyl-2H-indazol-3-yl)piperidin-1-ylsulfonyl)-2-methoxybenzoic acid] | 2 nM | 4030 nM |  |  |  |  | concentration at 1 hr ([3]; male, C57bl/6j, plasma, Dose 30 mg/kg, Time 1 hr, read-out: PLASMA Mean Conc. (ng/mL) ± Std. Dev): 241 ± 117 ng/mL; concentration at 4 hr ([3]; male, C57bl/6j, plasma, Dose 30 mg/kg, Time 4 hr, read-out: PLASMA Mean Conc. (ng/mL) ± Std. Dev): 13 ± 1.7 ng/mL; BRAIN Mean Conc. (ng/mL) ± Std. Dev (ng/mL) ([3]; Dose 30 mg/kg, Time 1 hr): BLOQ ± NA; BRAIN Mean Conc. (ng/mL) ± Std. Dev (ng/mL) ([3]; Dose 30 mg/kg, Time 4 hr): BLOQ ± NA
NC(=O)c1cccc(CN2CCC(c3nn(C4CC4)c4ccc(C(c5ccc(Cl)cc5)c5ccc(Cl)cc5)cc34)CC2)c1 [Compound 206] | 8 nM | > 10000 nM | 21.5 ng/mL | 333.5 ± 70.5 ng/mL | 30.6 ± 6.5 ng/mL | 532.8 ± 58.9 ng/mL | 
O=C(O)c1cccc(CN2CCC(c3nn(C4CC4)c4ccc(C(c5ccc(Cl)cc5)c5ccc(Cl)cc5)cc34)CC2)c1 [Compound 207] | 9 nM | 9700 nM | 516 ± 44.2 ng/mL | 7373 ± 867 ng/mL | 1180 ± 115 ng/mL | 4317 ± 856 ng/mL | 
O=C(O)c1ccc([C@@H](c2ccc(Cl)cc2)c2ccc3[nH]nc(C4CCN(S(=O)(=O)C(F)(F)F)CC4)c3c2)cc1 [Compound 232] | 26 nM | > 10000 nM |  | 1763 ± 474 ng/mL |  | 196 ± 88.0 ng/mL | BRAIN Mean Conc. (ng/mL) ± Std. Dev (ng/mL) ([3]; Dose 30 mg/kg, Time 1 hr): BLOQ ± NA; BRAIN Mean Conc. (ng/mL) ± Std. Dev (ng/mL) ([3]; Dose 30 mg/kg, Time 4 hr): BLOQ ± NA
O=C(O)c1ccc([C@@H](c2ccc(Cl)cc2)c2ccc3[nH]nc(N4CCN(S(=O)(=O)C(F)(F)F)CC4)c3c2)cc1 [Compound 234] | 16 nM | > 10000 nM | 11.2 ± 3.95 ng/mL | 8693 ± 499 ng/mL | 8.31 ± 2.31 ng/mL | 979 ± 376 ng/mL | 
O=S(=O)(N1CCC(c2nn(C3CC3)c3ccc(C(c4ccc(Cl)cc4)c4ccc(Cl)cc4)cc23)CC1)C(F)(F)F [Compound 275] | 24 nM | > 10000 nM |  |  |  |  | 
CC(c1cccc(C(=O)O)c1)N1CCC(c2n[nH]c3ccc(C(c4ccc(Cl)cc4)c4ccc(Cl)cc4)cc23)C1 (centres unmarked) [Compound 277] | 1550 nM | 7000 nM |  |  |  |  | 
O=S(=O)(N1CCC(c2n[nH]c3ccc(C(c4ccc(Cl)cc4)C4CCCC4)cc23)CC1)C(F)(F)F (centres unmarked) [Compound 279] | 785 nM | > 42000 nM |  |  |  |  | 
O=S(=O)(N1CCC(c2n[nH]c3ccc(C(c4ccc(Cl)cc4)C4CCCCC4)cc23)CC1)C(F)(F)F (centres unmarked) [Compound 280] | 565 nM | > 42000 nM |  |  |  |  | 
